Measured values as given in patent publication US20240261412A1, “NUTRACEUTICAL COMPOSITION FOR DELIVERY OF HYDROPHILIC AND HYDROPHOBIC BIOACTIVE SUBSTANCES” (AKAY NATURAL INGREDIENTS PRIVATE LIMITED, priority 2021, published 2024).
Where “and” joins values, the source holds several entries; their conditions need not be identical. Equal entries are not always repeated. Values belong to the compound of their own block, whether it stands above or below them.

Legend:
[1] = In vitro release kinetics of calcium ascorbate formulation; type: physicochemical; conditions: stomach and intestinal pH conditions, FIG. 5
Experimental: The in vitro release of ascorbic acid from the calcium ascorbate powder formulation was determined in water containing 1.6 mmol of the disodium salt of EDTA (ethylenediamine tetra acetic acid) at pH 2.0 and 6.8 using 0.1 M HCl and phosphate buffer respectively. 500 mg of calcium ascorbate powder formulation was mixed with 500 mL of EDTA solution to obtain the calcium ascorbate solution. The pH of the calcium ascorbate solution was adjusted and agitated at 100 rpm. About 1 mL of the solution was carefully withdrawn at regular intervals of 0, 1, 2, 4, 6, and 8 h and made up to 100 mL with water. The ascorbate content was then analysed by HPLC method. Analysis was performed in triplicate and the mean cumulative percentage of released ascorbate was calculated and plotted against time to study the in vitro release kinetics of CAAS from the fenugreek galactomannan matrix.

[2] = Pharmacokinetics of calcium ascorbate formulation in healthy volunteers; type: in vivo, human; conditions: single oral dose of 1000 mg
From the text: The relative bioavailability of the calcium ascorbate formulation obtained in Example 5 (FC+) with respect to the unformulated CAAS (UF-CAAS) powder with >98% purity was investigated in healthy volunteers.
The study was designed as a randomized, double-blinded, single dose study on healthy volunteers. Healthy volunteers (males and females) (n ¼14) aged 18 to 65 years having BMI between 18-25 kgm^−2 were enrolled for the study. Those who were having a history of gut disorders such as irritable bowel syndrome, ulcerative colitis, gastro-oesophageal reflux.
Selected participants were randomized into one of the three treatment arms consisting of three single dose treatments, with either formulated (tablets and capsules) or unformulated (UFCAAS) tablets.
Tablets and hard-shell two-piece hypromellose capsules of both FC+ and UF-CAAS were prepared in such a way that each tablet weighs about 1000±25 mg and each capsule contains 500±25 mg with similar content of CAAS. The study participants were orally administered with a single dose of 1000 mg tablet or capsule as per the study protocol, along with 200±10 mL of normal drinking water.
The quantification of calcium ascorbate in plasma was carried out by a validated HPLC method.

[3] = Pharmacokinetics of fisetin powder formulation in healthy human subjects; type: in vivo; conditions: human plasma
Experimental: The bioavailability of the fisetin formulation was evaluated in healthy human subjects. It has been evaluated in a single dose, randomized, comparative, double-blinded crossover design was adopted to evaluate the difference in the bioavailability and pharmacokinetic parameters (Cmax, AUC, Tmax, and t½) of free (unconjugated) fisetin and geraldol following the oral administration of a fisetin formulation obtained in example 6 (FF-20) and unformulated fisetin (UF). The participants were provided with a capsule contained 500±25 mg of UF or FF-20. Around 50 mg of microcrystalline cellulose was present in each capsule as a flow-improving excipient. Following administration, blood samples (2 mL) were collected 5 min (t0) prior to oral dosing and subsequently at 0.5, 1, 2, 3, 5, 8, and 12 h after oral ingestion of UF or FF-20, using an indwelling venous cannula. Participants were provided with a standardized breakfast, lunch, snack, and dinner respectively at 1, 4, 8, and 12 h after dosing. Plasma was separated by centrifugation at 11,950×g for 10 min at 4° C. and stored for a maximum of two days at −20° C. for analysis. Fisetin and geraldol in plasma samples were extracted and subjected to UPLC-ESI-MS/MS analyses.

[4] = Pharmacokinetics study of resveratrol, randomized double-blinded crossover, capsules and sachets; type: in vivo, human; conditions: for Tmax: human, plasma, read-out: Free Resveratrol Tmax
Experimental: The bioavailability study in human subjects was carried out in two phases. In the first phase, identical hard shell gelatin capsules of either the trans-resveratrol powder formulation obtained in example 1 (RF-20) or unformulated resveratrol (U-tRES) containing 80 mg of trans-resveratrol were provided. […] The unformulated capsule contained 80±5 mg of trans-resveratrol with 98.2% purity isolated from Japanese Knotweed (U-tRES) by an ethanol/water extraction process and about 300 mg of microcrystalline cellulose as an excipient. In the second phase, the same dose of either the trans-resveratrol powder formulation or the unformulated resveratrol was administered in identical stick packs, each weighing about 3 g. Maltodextrin was used as an additive to make up the sachet packs to 3 g and the participants were asked to drink one sachet with about 240 mL of water. The double-blinded, placebo-controlled, randomized pharmacokinetic study was conducted using both capsules and sachets, to investigate the influence of delivery form on the relative bioavailability of trans-resveratrol from RF-20 and U-tRES. Each dose of either the resveratrol powder formulation or the unformulated resveratrol delivered 80±5 mg of trans-resveratrol. […] The blood samples were analysed by tandem mass spectrometry using QTRAP technology to detect, confirm and quantify ‘free’ resveratrol content in biomatrices.

[5] = In vitro release kinetics of trans-resveratrol formulation (USP dissolution apparatus); type: physicochemical; conditions: pH 6.5 and 2, FIG. 2
Experimental: Briefly, a 50 mg of RF-20 was dispersed in a 10 mL solution of appropriate pH and kept under constant stirring at 37±0.5° C. […] The amount of resveratrol content in the solution was determined by HPLC, with the help of a calibration curve. The experiment was performed in triplicate and the mean cumulative percentage of released resveratrol was calculated and plotted against time to follow the release kinetics.

[6] = human plasma, capsule, 80 mg trans-resveratrol per dose
[7] = human plasma, sachet, 80 mg trans-resveratrol per dose

Compound: calcium ascorbate [UF-CAAS]
in vitro release behaviour [1]: sustained release
AUC (plasma ascorbate) [2]: 311.4 ± 63.87^ μM · h/mL
MRT (plasma ascorbate) [2]: 22.67 ± 2.02 h
T1/2 (plasma ascorbate) [2]: 3.6 h
Tmax (plasma ascorbate) [2]: 1 h
Cmax ([2]; read-out: Cmax (plasma ascorbate)): 51.7 ± 21 µM

Tmax ([3]; 500 mg, single oral dose): 0.88 h
Cmax ([3]; 500 mg, single oral dose, normalized for the higher fisetin intake in UF): 9.97 ng/mL
AUC(0-t) ([3]; 500 mg, single oral dose, normalized for the higher fisetin intake in UF, read-out: Fisetin AUC0-12): 12.7 ng·h/mL
half-life ([3]; 500 mg, single oral dose, read-out: Fisetin t1/2 (converted)): 1.14 h
time after dosing up to which fisetin levels were quantifiable [3]: 2 h
Compound: O=c1c(O)c(-c2ccc(O)c(O)c2)oc2cc(O)ccc12 [UF, fisetin]

Tmax ([4]; both sexes, oral, 80 mg, human plasma, capsule, 80 mg trans-resveratrol per dose): 1.07 ± 0.26 h
Tmax ([4]; both sexes, oral, 80 mg, human plasma, sachet, 80 mg trans-resveratrol per dose): 1.21 ± 0.42 h
half-life ([4]; both sexes, oral, human plasma, sachet, 80 mg trans-resveratrol per dose, read-out: Free Resveratrol t1/2 (converted)): 1.58 ± 0.65 h
time after which plasma levels were undetectable ([4]; free resveratrol, sachet): 3 h
free resveratrol AUC0-24 h ([4]; human plasma, capsule, 80 mg): 32.05 ± 9.97 ng·h/mL
Free Resveratrol AUC0-24 [4, 6]: 32.05 ng·h/mL
Free Resveratrol Cmax [4, 6]: 16.34 ng/mL
Free Resveratrol t1/2 [4, 6]: 1.58 h
Free Resveratrol Cmax ([4]; human plasma, capsule, 80 mg trans-resveratrol per dose, listed as UtRES): 16.34 ± 5.67 ng/mL
Free Resveratrol AUC0-24 [4, 7]: 31.93 ng·h/mL
Free Resveratrol Cmax [4, 7]: 15.07 ± 5.10 ng/mL and 15.07 ng/mL
solubility in release medium [5]: insoluble
Compound: Oc1ccc(/C=C/c2cc(O)cc(O)c2)cc1 [U-tRES, trans-resveratrol]
tolerability (side effects or adverse events) ([4]; n=16, both phases, 80±5 mg trans-resveratrol per dose): without any significant side effects or adverse events
